Measurements taken from ChEMBL document CHEMBL1833945, “Synthesis and anticonvulsant activity of new N-Mannich bases derived from 5-cyclopropyl-5-phenyl- and 5-cyclopropyl-5-(4-chlorophenyl)-imidazolidine-2,4-diones” (Bioorg Med Chem, 2011).
Activity calls are given as the source filed them. No cut-off for these calls is given here.

Tests used:
[1] = test system: Rattus norvegicus; experiment: Neurotoxicity in Sprague-Dawley albino rat assessed as motor impairment at 50 mg/kg, po after 2 hrs by rotarod test; type: toxicity, organism-based; set-up: dose 50 mg/kg, route oral; settings: in vivo
[2] = test system: Rattus norvegicus; experiment: Neurotoxicity in Sprague-Dawley albino rat assessed as motor impairment at 50 mg/kg, po after 4 hrs by rotarod test; type: toxicity, organism-based; set-up: dose 50 mg/kg, route oral; settings: in vivo
[3] = test system: Mus musculus; experiment: Anticonvulsant activity in CF1 albino mouse assessed as protection against electrically-induced seizure at 100 mg/kg, ip after 0.5 hrs by 6Hz psychomotor seizure test; type: functional, organism-based; set-up: dose 100 mg/kg
[4] = test system: Mus musculus; experiment: Anticonvulsant activity in ip dosed CF1 albino mouse assessed as protection against maximal electroshock-induced seizures after 0.5 hrs; type: functional; settings: read-out: MED
[5] = test system: Rattus norvegicus; experiment: Neurotoxicity in Sprague-Dawley albino rat assessed as motor impairment at 50 mg/kg, po after 0.5 hrs by rotarod test; type: toxicity, organism-based; set-up: dose 50 mg/kg, route oral; settings: in vivo
[6] = test system: Rattus norvegicus; experiment: Neurotoxicity in Sprague-Dawley albino rat assessed as motor impairment at 50 mg/kg, po after 0.25 hrs by rotarod test; type: toxicity, organism-based; set-up: dose 50 mg/kg, route oral; settings: in vivo
[7] = test system: Rattus norvegicus; experiment: Anticonvulsant activity in Sprague-Dawley albino rat assessed as protection against maximal electroshock-induced seizures at 30 mg/kg, po after 4 hrs; type: functional, organism-based; set-up: dose 30 mg/kg
[8] = organism: Rattus norvegicus; experiment: Protective index, ratio of TD50 for neurotoxicity in Sprague-Dawley albino rat to ED50 for inhibition of maximal electroshock-induced seizures in Sprague-Dawley albino rat; type: functional
[9] = test system: Rattus norvegicus; experiment: Neurotoxicity in Sprague-Dawley albino rat assessed as motor impairment at 30 mg/kg, po after 2 hrs by rotarod test; type: toxicity, organism-based; set-up: dose 30 mg/kg, route oral; settings: in vivo
[10] = test system: Rattus norvegicus; experiment: Neurotoxicity in Sprague-Dawley albino rat assessed as motor impairment at 50 mg/kg, po after 1 hrs by rotarod test; type: toxicity, organism-based; set-up: dose 50 mg/kg, route oral; settings: in vivo
[11] = test system: Rattus norvegicus; experiment: Anticonvulsant activity in po dosed Sprague-Dawley albino rat assessed as time to peak effect; type: functional
[12] = test system: Rattus norvegicus; experiment: Neurotoxicity in Sprague-Dawley albino rat assessed as motor impairment at 30 mg/kg, po after 0.5 hrs by rotarod test; type: toxicity, organism-based; set-up: dose 30 mg/kg, route oral; settings: in vivo
[13] = test system: Rattus norvegicus; experiment: Neurotoxicity in Sprague-Dawley albino rat assessed as motor impairment at 30 mg/kg, po after 1 hrs by rotarod test; type: toxicity, organism-based; set-up: dose 30 mg/kg, route oral; settings: in vivo
[14] = test system: Mus musculus; experiment: Anticonvulsant activity in CF1 albino mouse assessed as time to peak effect at 100 mg/kg, ip; type: functional; settings: route intraperitoneal
[15] = test system: Rattus norvegicus; experiment: Neurotoxicity in Sprague-Dawley albino rat assessed as motor impairment at 30 mg/kg, po after 4 hrs by rotarod test; type: toxicity, organism-based; set-up: dose 30 mg/kg, route oral; settings: in vivo
[16] = test system: Rattus norvegicus; experiment: Anticonvulsant activity in Sprague-Dawley albino rat assessed as protection against maximal electroshock-induced seizures at 30 mg/kg, po after 0.25 hrs; type: functional, organism-based; set-up: dose 30 mg/kg
[17] = test system: Mus musculus; experiment: Anticonvulsant activity in ip dosed CF1 albino mouse assessed as protection against subcutaneous pentylenetetrazole-induced seizures after 4 hrs; type: functional; settings: read-out: MED
[18] = organism: Rattus norvegicus
Description: Protective index, ratio of TD50 for neurotoxicity in Sprague-Dawley albino rat to ED50 for inhibition of subcutaneous pentylenetetrazole-induced seizures in Sprague-Dawley albino rat

[19] = test system: Rattus norvegicus; experiment: Anticonvulsant activity in Sprague-Dawley albino rat assessed as protection against maximal electroshock-induced seizures at 30 mg/kg, po after 0.5 hrs; type: functional, organism-based; set-up: dose 30 mg/kg
[20] = test system: Mus musculus; experiment: Anticonvulsant activity in CF1 albino mouse assessed as protection against electrically-induced seizure at 100 mg/kg, ip after 2 hrs by 6Hz psychomotor seizure test; type: functional, organism-based; set-up: dose 100 mg/kg
[21] = Lipophilicity, log P of compound; type: physicochemical; settings: octanol/water
[22] = test system: Rattus norvegicus; experiment: Anticonvulsant activity in Sprague-Dawley albino rat assessed as protection against subcutaneous pentylenetetrazole-induced seizures at 50 mg/kg, po after 0.25 hrs; type: functional, organism-based; set-up: dose 50 mg/kg
[23] = test system: Rattus norvegicus; experiment: Anticonvulsant activity in Sprague-Dawley albino rat assessed as protection against maximal electroshock-induced seizures at 30 mg/kg, po after 2 hrs; type: functional, organism-based; set-up: dose 30 mg/kg
[24] = test system: Mus musculus; experiment: Anticonvulsant activity in ip dosed CF1 albino mouse assessed as protection against subcutaneous pentylenetetrazole-induced seizures after 0.5 hrs; type: functional; settings: read-out: MED
[25] = test system: Rattus norvegicus; experiment: Anticonvulsant activity in po dosed Sprague-Dawley albino rat assessed as protection against maximal electroshock-induced seizures; type: functional
[26] = test system: Rattus norvegicus; experiment: Neurotoxicity in Sprague-Dawley albino rat assessed as motor impairment at 30 mg/kg, po after 0.25 hrs by rotarod test; type: toxicity, organism-based; set-up: dose 30 mg/kg, route oral; settings: in vivo
[27] = test system: Mus musculus; experiment: Neurotoxicity in CF1 albino mouse assessed as loss of rotard grasping at 300 mg/kg, ip after 4 hrs by rotarod test; type: toxicity, organism-based; set-up: dose 300 mg/kg, route intraperitoneal; settings: in vivo
[28] = test system: Mus musculus; experiment: Anticonvulsant activity in ip dosed CF1 albino mouse assessed as protection against electrically-induced seizure by 6Hz psychomotor seizure test; type: functional
[29] = Neurotoxicity in oral dosed Sprague-Dawley albino rat assessed as motor impairment by rotarod test; type: toxicity, organism-based; settings: in vivo
[30] = test system: Mus musculus; experiment: Anticonvulsant activity in CF1 albino mouse assessed as protection against electrically-induced seizure at 100 mg/kg, ip after 1 hrs by 6Hz psychomotor seizure test; type: functional, organism-based; set-up: dose 100 mg/kg
[31] = test system: Rattus norvegicus; experiment: Anticonvulsant activity in po dosed Sprague-Dawley albino rat assessed as protection against subcutaneous pentylenetetrazole-induced seizures; type: functional
[32] = test system: Rattus norvegicus; experiment: Anticonvulsant activity in Sprague-Dawley albino rat assessed as protection against maximal electroshock-induced seizures at 30 mg/kg, po after 1 hrs; type: functional, organism-based; set-up: dose 30 mg/kg
[33] = test system: Mus musculus; experiment: Anticonvulsant activity in ip dosed CF1 albino mouse assessed as protection against maximal electroshock-induced seizures after 4 hrs; type: functional; settings: read-out: MED
[34] = test system: Mus musculus; experiment: Neurotoxicity in CF1 albino mouse assessed as loss of rotard grasping at 300 mg/kg, ip after 0.5 hrs by rotarod test; type: toxicity, organism-based; set-up: dose 300 mg/kg, route intraperitoneal; settings: in vivo

Question: For `O=C1NC(=O)C(c2ccccc2)(C2CC2)N1` (centres undefined), which Activity [1] is on record?
Answer: The Activity was “Non-toxic”.

Question: And the Activity [2]?
Answer: The Activity was “Non-toxic”.

Question: And the Activity [3]?
Answer: The Activity was “Active”.

Question: And the minimal effective dose [4]?
Answer: Its minimal effective dose is 30 mg/kg.

Question: And the Activity [5]?
Answer: The Activity was “Non-toxic”.

Question: And the Activity [6]?
Answer: The Activity was “Non-toxic”.

Question: And the Activity [7]?
Answer: The Activity was “Active”.

Question: What about the PI [8] of the same compound?
Answer: Its PI is 13.47.

Question: And the Activity [9]?
Answer: Its Activity is “Non-toxic”.

Question: What about the Activity [10] of the same compound?
Answer: The Activity was “Non-toxic”.

Question: What about the Time [11] of the same compound?
Answer: The Time was 2 h.

Question: And the Activity [12]?
Answer: Its Activity is “Non-toxic”.

Question: What about the Activity [13] of the same compound?
Answer: The Activity was “Non-toxic”.

Question: And the Time [14]?
Answer: Its Time is 2 h.

Question: What about the Activity [15] of the same compound?
Answer: Its Activity is “Non-toxic”.

Question: And the Activity [16]?
Answer: Its Activity is “Active”.

Question: And the minimal effective dose [17]?
Answer: Its minimal effective dose is 100 mg/kg.

Question: What about the PI [18] of the same compound?
Answer: Its PI is 1.35.

Question: What about the Activity [19] of the same compound?
Answer: The Activity was “Active”.

Question: And the Activity [20]?
Answer: The Activity was “Active”.

Question: What about the logP [21] of the same compound?
Answer: The logP was 1.66.

Question: And the Activity [22]?
Answer: Its Activity is “inactive”.

Question: What about the Activity [23] of the same compound?
Answer: Its Activity is “Active”.

Question: And the minimal effective dose [24]?
Answer: The minimal effective dose was 30 mg/kg.

Question: And the ED50 [25]?
Answer: The ED50 was 5.76 mg/kg.

Question: And the Activity [26]?
Answer: The Activity was “Non-toxic”.

Question: And the Activity [27]?
Answer: Its Activity is “Toxic”.

Question: What about the ED50 [28] of the same compound?
Answer: The ED50 was 26.1 mg/kg.

Question: And the TD50 [29]?
Answer: Its TD50 is 77.6 mg/kg.

Question: And the Activity [30]?
Answer: Its Activity is “Active”.

Question: What about the ED50 [31] of the same compound?
Answer: The ED50 was 57.3 mg/kg.

Question: What about the Activity [32] of the same compound?
Answer: Its Activity is “Active”.

Question: What about the minimal effective dose [33] of the same compound?
Answer: Its minimal effective dose is 30 mg/kg.

Question: What about the Activity [34] of the same compound?
Answer: The Activity was “Toxic”.
